pIC50: −log10 of the molar value.
Key:
[1] = tested on: reserpine-induced DOPA accumulation; test: Inhibition of reserpine-induced DOPA accumulation; assay type: in vivo, Male SD rats; conditions: dose 3.2 mg/kg, oral, 2 hours before sacrifice; reserpine 1 mg/kg s.c. 17-19 hours before; striatum DOPA
Procedure: Test 2 [Inhibition of reserpine-induced DOPA accumulation]
Male SD rats weighing 300-400 g were used in this test. Rats were pretreated with reserpine (1 mg/kg, S.C.) 17-19 hours before sacrifice and then fasted. Test Compound was given orally to the rats 2 hours before sacrifice. [m-Hydroxybenzylhydrazine (100 mg/kg, i.p.) was given 30 minutes before sacrifice.] Each rat was exposed to microwaves using a head-focus microwave applicator for 1.5 seconds. The whole brain was removed and further separated into the striatum.
DOPA was determined as follows; the striatum was homogenized in 9 volumes of 0.1N perchloric acid solution (0.4% EDTA·2Na). The homogenate was centrifuged at 10,000 rpm for 1 minutes. The supernatant was applied to high performance liquid chromatography.

[2] = tested on: spontaneous hypertensive rats; test: Hypotensive effect on spontaneous hypertensive rats; assay type: in vivo, rat; conditions: dose 1 mg/kg, oral, in 0.5% methylcellulose; 15 to 25-week-old male spontaneous hypertensive rats
Procedure: Test 3 [Hypotensive effect on spontaneous hypertensive rats]
15 to 25-Week-old male spontaneous hypertensive rats with mean arterial blood pressure of about 160-200 mmHg, weighing 300-350 g, were used. The animals were cannulated in the left femoral artery and the mean blood pressure and heart rate were measured with a pressure-transducer. The animals were deprived of food for about 18 hours before oral dosing. The Test Compound was suspended in 0.5% methylcellulose, and given orally.

DA2 receptor = molecular target: T1, DA2 receptor (Rattus norvegicus, UniProt P61169); test: Dopamine receptor (DA2 receptor) binding assay; conditions: [3H]spiperone 0.2 nM; rat striatum 160 μg/ml; 37° C., 10 minutes, pH 7.4
T1 construct: The final tissue concentration of rat striatum was 160 μg/ml; from tissue; host or cells: rat striatum (printed 'stratum'), washed homogenate
Procedure: Test 1 [Dopamine receptor (DA2 receptor) binding assay]
The affinity for DA2 receptor of a Test Compound was determined following in vitro receptor binding assays.
Male rats weighing 150-300 g were decapitated and the stratum were dissected from their brains. The tissue was homogenized in 30 volumes of buffer which consisted of 50 mM Tris-HCl (pH 7.4 at 25° C.), 120 mM sodium chloride, 5 mM potassium chloride, 1 mM calcium chloride, 1 mM magnesium chloride, 10 μM pargirine, and 0.1% ascorbic acid. The homogenate was centrifuged at 50,000 g for 15 minutes. The pellet was resuspended in 30 volumes of the buffer. The tissue suspension was centrifuged and suspended again in the same way.
Incubation tubes received 100 μl of [phenyl-4-^3 H]spiperone, 100 μl of the Test Compound and 0.8 ml of tissue suspension during binding assays. The concentration of [phenyl-4-^3 H]spiperone was 0.2 nM. The final tissue concentration of rat striatum was 160 μg/ml. […] The filters were counted by liquid scintillation counter.
Specific binding of the [^3 H]spiperone was determined in the presence of 1 μM butaclamol. The IC50 value of the Test Compound was calculated from the data of [^3 H]spiperone binding in the presence of 10^-9 M, 10^-8 M, 10^-7 M and 10^-6 M Test Compound.

T1 sequence (P61169 whole entry): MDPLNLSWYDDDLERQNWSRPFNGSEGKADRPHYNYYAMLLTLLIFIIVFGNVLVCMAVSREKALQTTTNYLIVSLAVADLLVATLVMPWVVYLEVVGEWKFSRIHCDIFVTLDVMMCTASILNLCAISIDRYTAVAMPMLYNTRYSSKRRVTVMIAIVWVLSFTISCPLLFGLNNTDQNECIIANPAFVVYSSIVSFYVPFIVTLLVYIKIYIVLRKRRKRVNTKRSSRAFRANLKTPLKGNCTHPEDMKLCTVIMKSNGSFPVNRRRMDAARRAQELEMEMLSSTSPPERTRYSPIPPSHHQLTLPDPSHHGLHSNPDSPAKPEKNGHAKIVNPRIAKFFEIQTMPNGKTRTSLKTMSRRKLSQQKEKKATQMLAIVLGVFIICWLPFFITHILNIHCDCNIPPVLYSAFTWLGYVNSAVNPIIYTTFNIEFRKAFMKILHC

SMILES: Br.O=c1[nH]c(=O)n(CCCCN2CC=C(c3ccccc3)CC2)c2cc(O)ccc12 [Compound A, 1-[4-(4-phenyl-1,2,3,6-tetrahydropyridin-1-yl)butyl]-7-hydroxy-2,4(1H,3H)-quinazolinedione hydrobromide]
- Inhibition (%) [1]: 10%
- Maximum decrease of blood pressure (%) [2]: 19%
- pIC50 (DA2 receptor): 8.13
